This is an account of results in ChEMBL document CHEMBL5729393, “Inhibitors of blood coagulation factor XIII” (2022).

Where a SMILES comes first, the peptide text is derived from it. [ ]: non-standard residue; d: D form. The star is where a group is joined. ξ: configuration not given here. Nle(5E-ene,6-CO2Et) = CCOC(=O)/C=C/CC[C@H](N)C(=O)O; Oic(3aξ,7aξ) = O=C(O)[C@@H]1CC2CCCCC2N1; Cbz = O=C(OCc1ccccc1)*

Usually IC50 stands for the concentration needed to halve the response being measured. Read a low IC50 as inhibition by little substance.

For the test, the target named is T1, Coagulation factor XIII A chain (Homo sapiens, UniProt P00488).
T1 sequence (P00488 whole entry): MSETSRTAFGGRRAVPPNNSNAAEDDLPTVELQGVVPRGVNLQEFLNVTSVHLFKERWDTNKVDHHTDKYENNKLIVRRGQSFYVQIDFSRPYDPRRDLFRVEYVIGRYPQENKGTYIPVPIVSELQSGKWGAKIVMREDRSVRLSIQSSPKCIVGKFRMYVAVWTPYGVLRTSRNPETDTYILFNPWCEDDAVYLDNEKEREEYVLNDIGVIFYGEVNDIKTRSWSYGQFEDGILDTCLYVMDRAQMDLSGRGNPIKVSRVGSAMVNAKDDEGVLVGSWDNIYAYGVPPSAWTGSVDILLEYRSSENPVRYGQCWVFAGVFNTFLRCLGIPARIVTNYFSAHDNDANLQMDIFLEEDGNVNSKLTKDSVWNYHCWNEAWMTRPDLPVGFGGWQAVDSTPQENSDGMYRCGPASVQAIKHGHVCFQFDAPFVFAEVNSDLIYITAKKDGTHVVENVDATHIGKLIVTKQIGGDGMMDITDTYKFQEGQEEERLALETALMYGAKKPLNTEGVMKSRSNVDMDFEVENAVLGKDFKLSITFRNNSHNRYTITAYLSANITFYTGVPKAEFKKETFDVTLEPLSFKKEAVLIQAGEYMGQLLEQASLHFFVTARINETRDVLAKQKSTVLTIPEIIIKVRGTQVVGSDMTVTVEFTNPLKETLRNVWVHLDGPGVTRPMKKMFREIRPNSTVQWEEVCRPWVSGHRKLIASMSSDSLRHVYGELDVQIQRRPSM
The test is described as follows: All measurements were performed in triplicate.

Take `CCOC(=O)/C=C/CC[C@H](NC(=O)OCc1ccccc1)C(=O)N[C@H](C(=O)N1C2CCCCC2C[C@H]1C(=O)N[C@@H](CC(C)C)C(N)=O)C(C)C` (stereo partly drawn) (Cbz-[Nle(5E-ene,6-CO2Et)]V[Oic(3aξ,7aξ)]L-NH2): the IC50 is > 10 µM.
